# A melting point compilation (Tetko et al.; mined from patent text by program, amines drawn as free bases though some values may be those of a salt)
row,Structure (SMILES),melting point [°C]
1,CN(Cc1ccccc1)Cc1c(-c2ccc(NC(=O)NO)cc2)sc2c1c(=O)n(-c1ccccc1)c(=O)n2Cc1c(F)cccc1F,164 to 165
2,CCOC(=O)Cc1csc(N=C2SC[C@@H]3Cc4ccccc4CN23)n1,105
3,O=C1c2cc(OCc3ccc4ccccc4n3)ccc2OCC1OCc1ccccc1 (stereo not drawn),113 to 115
4,CC(=S)OC1CCN(C(=O)OCc2ccc([N+](=O)[O-])cc2)CC1,106 to 107
5,CCOCn1c(Nc2cc(C)cc(C)c2)c(CC)c(=O)[nH]c1=O,175 to 176
6,CCCc1c2c(c(C(C)(C)C)c(OC(C)=O)c1C(C)(C)C)CC(C)(C)O2,106
7,COc1ccc(ONc2ccccc2)cc1,70 to 73
8,Cc1oc(-c2ccccc2)nc1CCOc1ccc(CCC(=O)O)cc1,142 to 144
9,O=C1c2ccc(Cl)cc2CCc2c(O)cccc21,185
10,CCOC(=O)CCCc1oc(=O)[nH]c1-c1ccc(Cl)s1,95 to 96
11,CC#CCOc1cccc(S(=O)(=O)N(C)C(C(=O)NO)c2ccc(OCCCNC(=O)OCC)cc2)c1 (stereo not drawn),60 to 62
12,CCCCc1oc2ccccc2c1/C=N/OCCCOc1ccc(C(=O)O)c(NC(=O)c2ccc(C(C)(C)C)cc2)c1,181 to 182
13,CC1(C)CCC(C)(C)c2cc(-c3cc(-c4ccc(C(=O)O)cn4)ccc3-c3ccccc3)ccc21,105 to 107
14,COC(=O)c1ccc(Br)cc1OC(=S)N(C)C,118
15,CC(=O)OCCn1cncc1[N+](=O)[O-],61 to 62
16,O=C(OCc1ccccc1)N1CCN(c2ccc(S(=O)(=O)N3CCCC3=O)cc2)CC1,153 to 155
17,COc1cc(Nc2nccc(-c3ccc(OCc4ccccc4)cc3)n2)cc(OC)c1OC,171 to 172
18,CCOC(=O)C(=Cc1cccn2cc(-c3ccccc3)nc12)N=[N+]=[N-],136 to 138
19,COc1ccc(CNC(=O)c2cc([N+](=O)[O-])ccc2N)cc1,189 to 191
20,O=C(NCCn1c2ccccc2c(=O)c2ccccc21)OCc1ccccc1,224 to 226
21,COc1ccc(C[C@H](N[C@@H](Cc2ccccc2)C(=O)O)C(=O)NCCc2ocnc2C(=O)O)cc1,103 to 106
22,COc1ccc(C2CCCCC2)cc1-c1csc(NC(=O)N2CCN(C3CCN(S(=O)(=O)C4CC4)CC3)CC2)n1,138
23,Cn1c(=O)nc(Sc2ccccc2)sc1=S,116 to 118
24,C#CCN(C)c1c(-c2c(F)cc(F)cc2F)c(C#N)nc2ncnn12,147
25,CN(C)CCNc1ccc(NC(=O)Nc2ccc(Oc3ccccc3)cc2)cc1[N+](=O)[O-],178 to 180

row,Structure (SMILES),melting point [°C]
1,O=c1ncc(Cl)cn1CSCc1ccccc1,186
2,CCCCCS(=O)(=O)NCCCc1ccc(OCCOC)cc1Oc1ncc(C(F)(F)F)cc1Cl,87 to 90
3,NC[C@@H]1CNc2cccc(-c3cc(Cl)ccc3Cl)c2O1,130
4,CCOC(=O)/C(=C\Nc1ccccc1OC)c1ccc(OC)cc1,58 to 59
5,CC1(C)CC(=O)c2c(NCCCn3ccnc3)sc(-c3cc[nH]n3)c2C1,85
6,O=C1CCC(N2Cc3cc(CNC(=O)N4CCOCC4)ccc3C2=O)C(=O)N1 (stereo not drawn),208 to 210
7,CN(CCOc1ccc(CC(Oc2ccc3ccccc3c2)C(=O)O)cc1)c1nc2ccccc2o1 (stereo not drawn),162 to 164
8,CCN1CCc2nc(N3CCNCC3)ncc2C1=O,205 to 210
9,CCCc1nc2ccc(C(=O)c3ccccc3)cc2n1Cc1ccc(C(=O)O)cc1,295 to 296
10,COC(=O)c1cc(OCc2cn(-c3ccc(C(F)(F)F)cn3)nc2C)nn1C,130 to 131
11,CCOC(=O)c1ccc(CCCC2NC(=O)CS2)c(Cl)c1 (stereo not drawn),81.5 to 82.5
12,Cc1cc(-c2noc(CS(C)(=O)=O)n2)ccc1Br,130 to 132
13,C1=C(CCc2c[nH]c3ccccc23)CCNC1,155
14,CCCc1nn(-c2ccc(C(F)(F)F)cn2)cc1CCCOc1ccc(CC(=O)O)cc1OC,121 to 122
15,CC(C)(C)SCC1Cn2cc(C(=O)NCc3ccc(Cl)cc3)c(=O)c3cc(CN4CCOCC4)cc(c32)O1 (stereo not drawn),198 to 201
16,O=C1NCc2c1c(O)nc1ccccc21,340 to 350
17,O=C(O)c1cn2c3c(cccc3c1=O)C1CCCCC12 (stereo not drawn),238 to 241
18,COc1nc2ccccc2cc1NC(=O)N1CCN(c2cccc(OC(C)C)c2)CC1,111 to 113
19,COc1ccc2c(CN3CCC[C@H]3CO)cc3cc4c(cc3c2c1)OCO4,138 to 139
20,CCOc1cc(/C(=C\C#N)c2ccc(NC(=O)OC)c(OC)c2)ccc1OC,148 to 149
21,Cc1cc2n(n1)C(c1cccc([N+](=O)[O-])c1)N=N2 (stereo not drawn),269 to 275
22,Cc1ccc2nc(C(=O)Nc3ccccn3)[nH]c2c1,230
23,COc1cc(CO)ccc1OCc1nc(N2CCOCC2)sc1C,121 to 122
24,CCOC(=O)c1c(C)n(C(=O)c2ccccc2)c2ccc(Oc3nc(OC)cc(OC)n3)c(C(=O)O)c12,113 to 115
25,CC(c1oc2ccccc2c(=O)c1-c1cccc(F)c1)n1nc(-c2ccc(CN)s2)c2c(N)ncnc21 (stereo not drawn),275 to 278

row,Structure (SMILES),melting point [°C]
1,CN(C(=O)c1cnc(N2CC(C)(C)NC2=O)nc1N)c1cccc(C(F)(F)F)c1,210 to 211
2,Cc1ccc(C(=O)c2cc(Br)c(CC(=O)O)n2C)cc1,162 to 164
3,Cc1ccc(CC(CS)C(=O)Nc2cccc(C(=O)O)c2C)cc1 (stereo not drawn),194 to 196
4,Nc1ccc2ncc(Br)cc2c1,151 to 152
5,Cn1cc(C2=C(c3c4n(c5ccccc35)CC(CCO)CC4)C(=O)NC2=O)c2ccccc21 (stereo not drawn),236 to 238
6,Cc1c(CO)c2ccc(OCCCN3CCN(Cc4ccc(Cl)cc4)CC3)cc2oc1=O,135
7,COC(=O)c1cc(=O)c2oc3ccc(Cl)cc3c(=O)c2[nH]1,300 to 305
8,O=S1NC(Cc2ccc3c(Cl)cccc3c2)=NO1 (stereo not drawn),164 to 165
9,CCOC(=O)C(C)(C)Oc1cccc2c1C[C@@H](OC)[C@H](O)C2 (relative stereo),153 to 155
10,CC(C)CC(=O)N[C@H]1CC[C@H](CCN2CCN(c3nccc4c3CCO4)CC2)CC1,202
11,O=C(CCCCCNC(=O)[C@H](Cc1c[nH]c2ccccc12)NC(=O)CCCc1c[nH]c2ccccc12)NO,94 to 96
12,C=CCNc1nc(C2C(=O)Nc3ccc(Br)cc32)c2cn(C)nc2n1 (stereo not drawn),336 to 340
13,COc1ccc(C=CC=O)cc1OCc1nc(-c2ccccc2)oc1C,136 to 137
14,CCCCc1nc2cccc(CC#N)c2n1Cc1ccc(-c2ccccc2C#N)cc1,180 to 181
15,Cc1oc(-c2ccccc2)nc1COc1ccc(OCc2ccccc2)cc1,126 to 127
16,CNc1nc(-c2cccc(-c3ccccc3)c2)c2cc(OC)c(OC)cc2n1,183 to 185
17,CNC(=O)Nc1ccc(OCCNCC(O)c2ccc(O)cc2)cc1 (stereo not drawn),155 to 160
18,CON=C(C(=O)O)c1nc(NC=O)sc1Br,165 to 167
19,NC(=O)c1cc(Br)c(O)c(Br)n1,261 to 266
20,C=CCOc1ccc2ccc(=O)oc2c1,165
21,Nc1n[nH]c2c1CCC2,116 to 120
22,O=C1c2c(-c3ccc(Cl)cc3)noc2CCC1CCCN1CCN(C(c2ccc(F)cc2)c2ccc(F)cc2)CC1 (stereo not drawn),150 to 152
23,N#Cc1ccc(Cn2nc(-c3ccccc3O)nc2-c2ccccc2O)cc1,147 to 149
24,Cc1cc(-c2oncc2CCCO)ccc1Cl,50 to 51
25,COC(=O)c1cccc(S(N)(=O)=O)c1I,155 to 157

row,Structure (SMILES),melting point [°C]
1,Nc1cc(OCC2CC2)c(C(=O)NC2CN3CCC2CC3)cc1Cl (stereo not drawn),183 to 185
2,Nc1ccc(-c2noc(-c3cnn4c(C(F)F)cc(-c5ccc(Cl)c(Cl)c5)nc34)n2)cn1,279
3,CC(C)[C@@H](N)C(=O)NCC(F)(F)F,43 to 47
4,CCN1C(=O)NC(Cc2c[nH]c3ccccc23)C1CCc1cc(C(F)(F)F)cc(C(F)(F)F)c1 (stereo not drawn),228 to 230
5,CCOC(=O)COC(=O)c1cc(NC(=O)OCc2ccccc2)ccc1OCC(=O)OCC,77 to 78
6,CS(=O)(=O)Nc1ccc([N+](=O)[O-])cn1,217 to 220
7,COc1cc(Nc2c(C#N)cnc3cc(-c4ccc(CN5CCCCC5)s4)ccc23)c(Cl)cc1Cl,155 to 160
8,CCCc1ccccc1OCCCOc1ccc2c(c1CCC)OC(CCC(=O)O)(CCC(=O)O)CC2=O,163 to 165
9,O=C(O)c1cn(CCc2cccc(C(F)(F)F)c2)c2cc(C3CC3)nn2c1=O,200 to 205
10,CCOC(=O)c1[nH]c2sc(Cl)cc2c1Cl,166 to 167
11,COc1cn(-c2ccc(N3CC=CC3)cc2F)nc(-c2ccnn2-c2ccccc2)c1=O,204 to 207
12,Cc1ccccc1-c1ccc(C(=O)Nc2ccc3cc(CN4CCCC4)cnc3c2C)cc1,150 to 151
13,CCOC(=O)CCc1ccc(N2CCN(c3ccc(C(=N)NC(=O)OCC)cc3)C2=O)cc1,> 335
14,O=C1CCN(C(=O)c2cc(C(F)(F)F)cc(C(F)(F)F)c2)C(Cc2ccccc2)C1 (stereo not drawn),102
15,CC(C)(C)c1ccc(C(=O)CCCN2CCC(O)CC2)cc1,63 to 65
16,C=C(C)C(=O)N1CCC[C@H]1C(=O)O,102 to 104
17,CC(=O)Nc1cc(C)nn1C,45 to 46
18,CCOC(=O)c1cc(-c2ccccc2)nc2c(N)cccc12,66 to 69
19,C=COC(=O)n1c(S(=O)Cc2ccc(C)cn2)nc2cscc21 (stereo not drawn),162
20,Cc1ccc(O[C@@H]2CNCC[C@H]2O)cc1C (relative stereo),98 to 99
21,Cc1cccc(-c2ncc(N)c(=O)n2CC(=O)NC(Cc2ccccc2)C(=O)C(F)(F)C(=O)NCC(=O)O)c1 (stereo not drawn),128 to 132
22,CCOC(=O)CCNC(=O)N(CCCO)c1ccc(-c2ccc(C#N)cc2)cc1,102 to 104
23,COc1ccc(N2CCOCC2)c2sc(NC(=O)C[C@H]3CC[C@@H](O)CC3)nc12,212 to 216
